Tested on: FGFR3 enzyme
Experiment: FGFR Enzymatic Assay (FRET peptide phosphorylation), FGFR3
Assay type: biochemical
Conditions: IC50 ratio showing FGFR3 selectivity; Table 2A, pre-incubated for 4 hours
Description: The inhibitor potency of the exemplified compounds was measured in an enzyme assay that measures peptide phosphorylation using FRET measurements to detect product formation. Inhibitors were serially diluted in DMSO and a volume of 0.5 μL was transferred to the wells of a 384-well plate.
GraphPad prism3 was used to analyze the data.

FGFR1/FGFR3 | FGFR4/FGFR3 | SMILES
>5 | >5 | COc1cc(OC)c(F)c(N2Cc3cnc(-c4cn(C)nc4C)cc3N(Cc3cncnc3)C2=O)c1F [Example 84, 3-(2,6-difluoro-3,5-dimethoxyphenyl)-7-(1,3-dimethyl-1H-pyrazol-4-yl)-1-(pyrimidin-5-ylmethyl)-3,4-dihydropyrido[4,3-d]pyrimidin-2(1H)-one]
>5 | >10 | COc1cc(OC)c(F)c(N2Cc3cnc(-c4cn(C)nc4C)cc3N(Cc3cnccn3)C2=O)c1F [Example 85, 3-(2,6-difluoro-3,5-dimethoxyphenyl)-7-(1,3-dimethyl-1H-pyrazol-4-yl)-1-(pyrazin-2-ylmethyl)-3,4-dihydropyrido[4,3-d]pyrimidin-2(1H)-one]
>5 | >10 | COc1cc(OC)c(F)c(N2Cc3cnc(-c4cn(C)nc4C)cc3N(c3cccnc3)C2=O)c1F [Example 86, 3-(2,6-difluoro-3,5-dimethoxyphenyl)-7-(1,3-dimethyl-1H-pyrazol-4-yl)-1-(pyridin-3-yl)-3,4-dihydropyrido[4,3-d]pyrimidin-2(1H)-one]
>5 | >10 | COc1cc(OC)c(F)c(N2Cc3cnc(-c4cn(C)nc4C)cc3N(c3cncc(C)n3)C2=O)c1F [Example 87, 3-(2,6-difluoro-3,5-dimethoxyphenyl)-7-(1,3-dimethyl-1H-pyrazol-4-yl)-1-(6-methylpyrazin-2-yl)-3,4-dihydropyrido[4,3-d]pyrimidin-2(1H)-one]
>5 | >10 | COc1cc(OC)c(F)c(N2Cc3cnc(-c4cn(C)nc4C)cc3N(Cc3cccnn3)C2=O)c1F [Example 88, 3-(2,6-difluoro-3,5-dimethoxyphenyl)-7-(1,3-dimethyl-1H-pyrazol-4-yl)-1-(pyridazin-3-ylmethyl)-3,4-dihydropyrido[4,3-d]pyrimidin-2(1H)-one]
>5 | >10 | COc1cc(OC)c(F)c(N2Cc3cnc(-c4cn(C)nc4C)cc3N(c3cccc(-c4cnnn4C)c3)C2=O)c1F [Example 89, 3-(2,6-difluoro-3,5-dimethoxyphenyl)-7-(1,3-dimethyl-1H-pyrazol-4-yl)-1-(3-(1-methyl-1H-1,2,3-triazol-5-yl)phenyl)-3,4-dihydropyrido[4,3-d]pyrimidin-2(1H)-one]
>5 | >5 | COc1cc(OC)c(F)c(N2Cc3cnc(-c4cn(C)nc4C)cc3N(C(C)C)C2=O)c1F [Example 90, 3-(2,6-difluoro-3,5-dimethoxyphenyl)-7-(1,3-dimethyl-1H-pyrazol-4-yl)-1-isopropyl-3,4-dihydropyrido[4,3-d]pyrimidin-2(1H)-one]
>5 | >5 | COc1cc(OC)c(F)c(N2Cc3cnc(-c4cn(C)nc4C)cc3N(C3(C#N)CC3)C2=O)c1F [Example 91, 1-(3-(2,6-difluoro-3,5-dimethoxyphenyl)-7-(1,3-dimethyl-1H-pyrazol-4-yl)-2-oxo-3,4-dihydropyrido[4,3-d]pyrimidin-1(2H)-yl)cyclopropanecarbonitrile]
>5 | >5 | COc1cc(OC)c(F)c(N2Cc3cnc(-c4cn(C)nc4C)cc3N(Cc3cc(C(C)C)on3)C2=O)c1F [Example 93, 3-(2,6-difluoro-3,5-dimethoxyphenyl)-7-(1,3-dimethyl-1H-pyrazol-4-yl)-1-((5-isopropylisoxazol-3-yl)methyl)-3,4-dihydropyrido[4,3-d]pyrimidin-2(1H)-one]
>5 | >10 | COc1cc(OC)c(F)c(N2Cc3cnc(-c4cn(C)nc4C)cc3N(Cc3ccccn3)C2=O)c1F [Example 94, 3-(2,6-difluoro-3,5-dimethoxyphenyl)-7-(1,3-dimethyl-1H-pyrazol-4-yl)-1-(pyridin-2-ylmethyl)-3,4-dihydropyrido[4,3-d]pyrimidin-2(1H)-one]
>5 | >10 | COc1cc(OC)c(F)c(N2Cc3cnc(-c4cn(C)nc4C)cc3N(Cc3csc(C)n3)C2=O)c1F [Example 95, 3-(2,6-difluoro-3,5-dimethoxyphenyl)-7-(1,3-dimethyl-1H-pyrazol-4-yl)-1-((2-methylthiazol-4-yl)methyl)-3,4-dihydropyrido[4,3-d]pyrimidin-2(1H)-one]
>5 | >10 | COc1cc(OC)c(F)c(N2Cc3cnc(-c4cn(C)nc4C)cc3N(c3ccc(CC#N)cc3)C2=O)c1F [Example 97, 2-(4-(3-(2,6-difluoro-3,5-dimethoxyphenyl)-7-(1,3-dimethyl-1H-pyrazol-4-yl)-2-oxo-3,4-dihydropyrido[4,3-d]pyrimidin-1(2H)-yl)phenyl)acetonitrile]
>5 | >5 | COc1cc(OC)c(F)c(N2Cc3cnc(-c4cn(C)nc4C)cc3N(c3cccc(F)c3)C2=O)c1F [Example 99, 3-(2,6-difluoro-3,5-dimethoxyphenyl)-7-(1,3-dimethyl-1H-pyrazol-4-yl)-1-(3-fluorophenyl)-3,4-dihydropyrido[4,3-d]pyrimidin-2(1H)-one]
>5 | >5 | COc1cc(OC)c(F)c(N2Cc3cnc(-c4cn(C)nc4C)cc3N(c3ccn(C)n3)C2=O)c1F [Example 100, 3-(2,6-difluoro-3,5-dimethoxyphenyl)-7-(1,3-dimethyl-1H-pyrazol-4-yl)-1-(1-methyl-1H-pyrazol-3-yl)-3,4-dihydropyrido[4,3-d]pyrimidin-2(1H)-one]
>3 | >5 | COc1cc(OC)c(F)c(N2Cc3cnc(-c4cn(C)nc4C)cc3N(c3cc(F)cc(F)c3)C2=O)c1F [Example 103, 3-(2,6-difluoro-3,5-dimethoxyphenyl)-1-(3,5-difluorophenyl)-7-(1,3-dimethyl-1H-pyrazol-4-yl)-3,4-dihydropyrido[4,3-d]pyrimidin-2(1H)-one]
>3 | >5 | COc1ccc(N2C(=O)N(c3c(F)c(OC)cc(OC)c3F)Cc3cnc(-c4cn(C)nc4C)cc32)cc1 [Example 104, 3-(2,6-difluoro-3,5-dimethoxyphenyl)-7-(1,3-dimethyl-1H-pyrazol-4-yl)-1-(4-methoxyphenyl)-3,4-dihydropyrido[4,3-d]pyrimidin-2(1H)-one]
>3 | >5 | COc1cc(OC)c(F)c(N2Cc3cnc(-c4cn(C)nc4C)cc3N(c3ncccn3)C2=O)c1F [Example 105, 3-(2,6-difluoro-3,5-dimethoxyphenyl)-7-(1,3-dimethyl-1H-pyrazol-4-yl)-1-(pyrimidin-2-yl)-3,4-dihydropyrido[4,3-d]pyrimidin-2(1H)-one]
>3 | >5 | CCc1cnc(N2C(=O)N(c3c(F)c(OC)cc(OC)c3F)Cc3cnc(-c4cn(C)nc4C)cc32)cn1 [Example 106, 3-(2,6-difluoro-3,5-dimethoxyphenyl)-7-(1,3-dimethyl-1H-pyrazol-4-yl)-1-(5-ethylpyrazin-2-yl)-3,4-dihydropyrido[4,3-d]pyrimidin-2(1H)-one]
>3 | >10 | COc1cccc(N2C(=O)N(c3c(F)c(OC)cc(OC)c3F)Cc3cnc(-c4cn(C)nc4C)cc32)c1 [Example 109, 3-(2,6-difluoro-3,5-dimethoxyphenyl)-7-(1,3-dimethyl-1H-pyrazol-4-yl)-1-(3-methoxyphenyl)-3,4-dihydropyrido[4,3-d]pyrimidin-2(1H)-one]
>3 | >5 | COc1cc(OC)c(F)c(N2Cc3cnc(-c4cn(C)nc4C)cc3N(c3ccccc3F)C2=O)c1F [Example 110, 3-(2,6-difluoro-3,5-dimethoxyphenyl)-7-(1,3-dimethyl-1H-pyrazol-4-yl)-1-(2-fluorophenyl)-3,4-dihydropyrido[4,3-d]pyrimidin-2(1H)-one]
>3 | >5 | CNS(=O)(=O)c1cccc(N2C(=O)N(c3c(F)c(OC)cc(OC)c3F)Cc3cnc(-c4cn(C)nc4C)cc32)c1 [Example 111, 3-(3-(2,6-difluoro-3,5-dimethoxyphenyl)-7-(1,3-dimethyl-1H-pyrazol-4-yl)-2-oxo-3,4-dihydropyrido[4,3-d]pyrimidin-1(2H)-yl)-N-methylbenzenesulfonamide]
>3 | >5 | COc1cnc(N2C(=O)N(c3c(F)c(OC)cc(OC)c3F)Cc3cnc(-c4cn(C)nc4C)cc32)cn1 [Example 112, 3-(2,6-difluoro-3,5-dimethoxyphenyl)-7-(1,3-dimethyl-1H-pyrazol-4-yl)-1-(5-methoxypyrazin-2-yl)-3,4-dihydropyrido[4,3-d]pyrimidin-2(1H)-one]

SMILES | FGFR1/FGFR3 | FGFR4/FGFR3
COc1cc(OC)c(F)c(N2Cc3cnc(-c4cn(C)nc4C)cc3N(c3ccc(S(C)(=O)=O)cc3)C2=O)c1F [Example 98, 3-(2,6-difluoro-3,5-dimethoxyphenyl)-7-(1,3-dimethyl-1H-pyrazol-4-yl)-1-(4-(methylsulfonyl)phenyl)-3,4-dihydropyrido[4,3-d]pyrimidin-2(1H)-one] | >5 | >10
COc1cc(OC)c(F)c(N2Cc3cnc(-c4cn(C)nc4C)cc3N(c3ccc(F)c(F)c3)C2=O)c1F [Example 102, 3-(2,6-difluoro-3,5-dimethoxyphenyl)-1-(3,4-difluorophenyl)-7-(1,3-dimethyl-1H-pyrazol-4-yl)-3,4-dihydropyrido[4,3-d]pyrimidin-2(1H)-one] | >3 | >10
COc1cc(OC)c(F)c(N2Cc3cnc(-c4cn(C)nc4C)cc3N(c3cnc(C)cn3)C2=O)c1F [Example 107, 3-(2,6-difluoro-3,5-dimethoxyphenyl)-7-(1,3-dimethyl-1H-pyrazol-4-yl)-1-(5-methylpyrazin-2-yl)-3,4-dihydropyrido[4,3-d]pyrimidin-2(1H)-one] | >3 | >10
COc1cc(OC)c(F)c(N2Cc3cnc(-c4cn(C)nc4C)cc3N(C[C@H]3CCOC3)C2=O)c1F [Example 108, (R)-3-(2,6-difluoro-3,5-dimethoxyphenyl)-7-(1,3-dimethyl-1H-pyrazol-4-yl)-1-((tetrahydrofuran-3-yl)methyl)-3,4-dihydropyrido[4,3-d]pyrimidin-2(1H)-one] | >3 | >3
